In patent publication US6878736B1, “Histamine H3 receptor ligands” (James Black Foundation Limited, priority 1998, dated 2005):
Counter-ions that a name gives are not always drawn.

Experiments:
[1] = target: T1, Histamine H3 receptor (Cavia porcellus, UniProt Q9JI35); test: Histamine H3 functional assay, guinea pig ileum (ileal longitudinal muscle, myenteric plexus); set-up: species or system tissue; details: antagonist affinity from rightward shift of R-(α)-methylhistamine E/[A] curves (Schild), typical variance ±0.15 log units; for Kb: read-out: pKb (Guinea pig ileum) (converted)
T1 sequence (Q9JI35 whole entry): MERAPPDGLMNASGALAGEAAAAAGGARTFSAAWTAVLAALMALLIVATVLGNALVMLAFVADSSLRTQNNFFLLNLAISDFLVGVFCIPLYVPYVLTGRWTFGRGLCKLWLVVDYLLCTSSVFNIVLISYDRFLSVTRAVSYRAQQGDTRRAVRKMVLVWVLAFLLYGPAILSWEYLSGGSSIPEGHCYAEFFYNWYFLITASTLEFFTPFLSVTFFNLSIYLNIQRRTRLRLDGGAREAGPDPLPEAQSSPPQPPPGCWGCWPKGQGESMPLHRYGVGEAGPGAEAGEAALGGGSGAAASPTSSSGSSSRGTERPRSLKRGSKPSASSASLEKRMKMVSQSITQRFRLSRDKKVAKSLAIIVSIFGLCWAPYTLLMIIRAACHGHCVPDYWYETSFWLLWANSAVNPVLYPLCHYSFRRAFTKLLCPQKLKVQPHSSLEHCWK
Procedure: • 1. J. Med. Chem 1994, 314. • 2. WO 97/29092 Histamine H3 Functional Assay—Guinea Pig Ileum
The biological activity of the compounds of the examples was measured using the ileal longitudinal muscle, myenteric plexus assay described by Paton and Aboo Zar (J. Physiol. 1968, 194, 13-33). Male Dunkin-Hartley guinea pigs (250-300 g) were employed. Briefly, a 50 cm portion of ileum proximal to the caecum was removed, after discarding the terminal 20 cm. Ileal segments (3 cm) were cleaned by passing Krebs-Henseleit buffer containing 3 μM mepyramine gently through the ileum using a Pasteur pipette (size: 13.8 cm length, 0.65 cm diameter). To avoid unnecessary damage to the tissue, Krebs-Henseleit buffer was passed through the ileal segment, while it was lying horizontally on a petri dish. Therefore, the ileum was not over-distended and the buffer flowed through with ease. Each segment was then passed over a Pasteur pipette and the longitudinal muscle layer and adhering myenteric plexus was teased away using moist cotton wool, by stroking tangentially away from the mesenteric attachment. The tissues were suspended in 20 ml organ baths containing Krebs-Henseleit buffer at 37±1° C. and gassed with […]. The tissues were ligated to two parallel stainless steel wires, situated between two platinum electrodes (0.76 cm length, 0.06 cm diameter). All measurements were recorded isometrically (Grass FTO3 transducer). Following an initial loading tension of 1 g, the tissues were stimulated with electrical pulses at a frequency of 0.1 Hz and a pulse duration of 0.5 msec, as described by Kosterlitz & Watt (Br. J. Pharmacol. 1968, 266276). Initially, the tissues were stimulated at supramaximal (1.3 fold times maximal) voltage for a period of 30 min and then the tissues were washed and re-stimulated. A “sighter dose” of the selective histamine H3-receptor agonist, R-(α)-methylhistamine (0.3 μM) (Arrang et al. Nature, 1987, 117-123), was administered. Upon generation of response, the “sighter dose” was removed from the tissues by “washout” (6 washes over 60 min) and during this period the electrical stimulation was switched off. The tissues were then re-stimulated and allowed to stabilise prior to the addition of drug treatments, which were allocated on a randomised block basis to the organ baths. Following the incubation period, a single cumulative E/[A] curve was obtained. The experimental E/[A] curve data was expressed as the percentage inhibition of the peak height of electrically-stimulated contraction. Antagonist affinity values were calculated from the degree of rightward shift of the R-(α)-methylhistamine E/[A] curves using Schild's methods (Arunlakshana & Schild Br. J. Pharmacol. 1959, 48-58). Typical variance in this assay is ±0.15 log units.

[2] = target: T1, Histamine H3 receptor; test: Histamine H3 radioligand binding assay, guinea pig cortex ([3H]-R-α-methylhistamine); details: guinea pig cortex membranes, competition with 1 nM [3H]-R-α-methylhistamine; for Ki: read-out: pKi (Guinea pig cortex) (converted)
Procedure: The compounds of the invention were also tested in a guinea pig cortex binding assay, as follows:
Histamine H3 Radioligand Binding Assay—Guinea Pig Cortex
Male Dunkin Hartley guinea pigs (200-300 g) were used. The whole brain was removed and immediately placed in ice-cold 20 mM Hepes-NaOH buffer (pH7.4 at 21±3° C.). The cortex was dissected, weighed and homogenised in ice-cold 20 mM Hepes-NaOH buffer (pH7.4 at 21±3° C.) (50 ml/guinea-pig cortex) using a polytron (Kinematica AG; PT-DA 3020/2TS, 3×3 s). The homogenate was centrifuged at 100×g for 5 min and the supernatants pooled and stored at 4° C. The pellets were rehomogenised in fresh ice-cold buffer (80 ml) and recentrifuged (100×g for 5 min). The supernatants were pooled and pellets rehomogenised and recentrifuged (100×g for 5 min). All supernatants were pooled and centrifuged at 39,800×g for 12 min at 4° C. The final pellet was resuspended in 20 mM Hepes-NaOH buffer (pH7.4 at 21±3° C.) to a tissue concentration of 7.5 mg.ml^−1, using a teflon-in-glass homogeniser.
Guinea pig cortex membranes (400 μl) were incubated for 165 min at 21±3° C. in a final volume of 500 μl with 20 mM Hepes-NaOH buffer containing [^3H]-R-α-methylhistamine (50 μl; 1 nM) and competing compound. Total and non-specific binding of [^3H]-R-α-methylhistamine were defined using 50 μl of buffer and 50 μl of 10 μM thioperamide, respectively. The assay was terminated by rapid filtration through Whatman GF/B filters, presoaked (2 hr) in 0.1% polyethyleneimine, using a Brandell Cell Harvester. The filters were washed (3×3 ml) with ice-cold 50 mM Tris-HCl (pH6.9 at 21±3° C.), transferred into scintillation vials, 5 ml liquid scintillation cocktail was added and after 4 hours the bound radioactivity was determined by counting (4 min) in a Beckman liquid scintillation counter.
Data are analysed using GraphPad prism and the general equation for a competition curve with variable Hill slope (nH). [formula] where • X is the log concentration of competing compound, • Y is the binding obtained at each concentration of X, • pIC50 is the concentration of the competitor required to compete for half of the specific binding.
The IC50 is converted to the K1 using the Cheng Prusoff equation, K1=IC50/(1+(L/KD)) where • IC50 is the concentration of competitor required to compete for half the specific binding, • L is the radioligand concentration used, • KD is the equilibrium dissociation constant for the radioligand determined by saturation experiments.

Kb [1] | Ki [2] | SMILES | pKb (Guinea pig ileum) [1] | pKi (Guinea pig cortex) [2] | pKi (Guinea pig cortex) ([2]; bis-hydrochloride)
398 nM | 50.1 nM | N=C(NCCCN1CCCC1)NCc1ccc(I)cc1 [Example 6, N-(4-Iodobenzyl)-N′-(3-pyrrolidin-1-yl-propyl)-guanidine bis-hydrochloride] |  |  | 
200 nM | 100 nM | N=C(NCCCC1CCCCC1)NCCCN1CCCC1 [Example 43, N-(3-Cyclohexyl-propyl)-N′-(3-pyrrolidin-1-yl-propyl)-guanidine bis-hydrochloride] |  |  | 
200 nM | 1 nM | N=C(NCCCN1CCCC1)NCCc1ccc(Cl)cc1 [Example 20, N-(2(4-Chlorophenyl)ethyl)-N′-(3-pyrrolidin-1-yl-propyl)-guanidine bis-hydrochloride] |  |  | 
1000 nM | 25.1 nM | COC(=O)c1ccc(CNC(N)=NCCCN2CCCC2)cc1 [Example 14, 4-(N′-(3-Pyrrolidin-1-yl-propyl)-guanidinomethyl)-benzoic acid methyl ester bis-hydrochloride] |  |  | 
501 nM | 251 nM | O=S(=O)(NCCCCCN1CCCC1)NCc1ccc(Cl)cc1 [Example 141, N-(4-Chlorobenzyl)-N′-(5-pyrrolidin-1-yl-pentyl)-sulfamide] |  |  | 
200 nM | 100 nM | CN1CCC[C@H]1CCCNS(=O)(=O)NCc1ccc(Br)cc1 [Example 113, N-(4-Bromobenzyl)-N′-(3-(1-methyl-pyrrolidin-2S-yl)-propyl)-sulfamide] |  |  | 
 |  | Cl.Cl.N=C(NCCCCCN1CCCC1)NCC1CCCCC1 [Example 41, N-Cyclohexyl-methyl-N′-(5-pyrrolidin-1-yl-pentyl)-guanidine bis-hydrochloride] | 7.5 | 8.9 | 
 |  | Cl.Cl.N=C(NCCCCCN1CCCCC1)NCC12CC3CC(CC(C3)C1)C2 [Example 60, N-Adamantan-1-yl-methyl-N′-(5-piperidin-1-yl-pentyl)-guanidine bis-hydrochloride] | 8.1 | 8.0 | 
501 nM | 200 nM | CN1CCC[C@H]1CCCNS(=O)(=O)Cc1ccccc1 [Example 100, N-(3-(1-Methyl-pyrrolidin-2S-yl)-propyl)-phenyl-methanesulfonamide] |  |  | 
 |  | Cl.Cl.N=C(NCCCCCN1CCCCCCC1)NCC12CC3CC(CC(C3)C1)C2 [Example 62, N-Adamantan-1-yl-methyl-N′-(5-azocan-1-yl-pentyl)-guanidine bis-hydrochloride] | 7.4 | 7.5 | 
25.1 nM | 12.6 nM | N=C(NCCCCCN1CCCC1)NCCC12CC3CC(CC(C3)C1)C2 [Example 37, N-(2-Adamantan-1-yl-ethyl)-N′-(5-pyrrolidin-1-yl-pentyl)-guanidine bis-hydrochloride] |  |  | 
1580 nM | 398 nM | CN1CCC[C@H]1CCCNS(=O)(=O)Nc1ccc(Cl)cc1 [Example 112, N-(4-Chlorophenyl)-N′-(3-(1-methyl-pyrrolidin-2S-yl)-propyl)-sulfamide] |  |  | 
398 nM | 50.1 nM | N=C(NCCCN1CCCC1)NCc1ccc(Cl)cc1 [Example 2, N-(4-Chlorobenzyl)-N′-(3-pyrrolidin-1-yl-propyl)-guanidine bis-hydrochloride] |  |  | 
 |  | Cl.Cl.N=C(NCCCCCCN1CCCC1)NCC12CC3CC(CC(C3)C1)C2 [Example 77, N-Adamantan-1-yl-methyl-N-(6-pyrrolidin-1-yl-hexyl)-guanidine bis-hydrochloride] | 8.0 |  | 8.2
501 nM | 39.8 nM | N=C(NCCCN1CCCC1)NCc1ccccc1Br [Example 11, N-(2-Bromobenzyl)-N′-(3-pyrrolidin-1-yl-propyl)-guanidine bis-hydrochloride] |  |  | 
 |  | CN1CCN(CCCCCNC(=N)NCC23CC4CC(CC(C4)C2)C3)CC1.Cl.Cl.Cl [Example 63, N-Adamantan-1-yl-methyl-N′-(5-(4-methyl-piperazin-1-yl)-pentyl)-guanidine tris-hydrochloride] | 7.4 | 7.7 | 
